Source: US10294226B2, “Small molecule inhibitors of the JAK family of kinases” (Janssen Pharmaceutica NV, priority 2016, dated 2019)
In brackets after ≈: the same amount, converted by molar mass. Like-named read-outs stand apart in the source and are kept apart here.

Assays:
[1] = In vivo oral (p.o.) dosing, plasma and colon concentrations (Protocols 1 and 2); parameters: species or system female C57BL/6 mice; conditions: mice, 25 mg/kg p.o.
Procedure: These protocols are described below under the heading In vivo Studies. Three non-fasted female C57BL/6 mice were orally administered test compound at a dose of 25 mg/kg p.o. as a solution in 20% hydroxypropyl-beta-cyclodextrin (HPβCD) at a dose volume of 5 mL/kg. Blood samples were collected at 0.5, 2, and 4 h post dose via retro-orbital bleed or venipuncture of the dorsal metatarsal vein. Blood samples were collected into tubes containing anticoagulant (Heparin-Na) and placed on wet ice. […] Colon samples were collected at 4 h post dose. […] The colon was further washed by putting it in 5 mL of saline and shaken for 5 seconds. The colon sample was then patted dry, weighed, and homogenized as 1 part tissue (g) to 4 parts HPLC grade water (mL). Concentrations of the compound in plasma and colon homogenate were determined using a qualified liquid chromatography-triple quadrupole mass spectrometry (LC-MS/MS) method. […] Three non-fasted female C57BL/6 mice were orally administered test compound at a dose of 25 mg/kg p.o. as a solution in 20% HPβCD at a dose volume of 5 mL/kg. Blood samples were collected at 0.5, 2, and 4 h post dose via retro-orbital bleed or dorsal metatarsal vein. Blood samples were collected into tubes containing anticoagulant (Heparin-Na) and placed on wet ice. […] Colon samples were collected at 4 h post dose. […] The colon was further washed by putting it in 5 mL of saline and shaken for 5 seconds. The colon sample was then patted dry, weighed, and homogenized as 1 part tissue (g) to 4 parts HPLC grade water (mL). Concentrations of the compound in plasma and colon homogenate were determined using a qualified liquid chromatography-triple quadrupole mass spectrometry (LC-MS/MS) method.

P-gp (MDR1) = assay: MDCK-MDR1 permeability assay; format: in vitro ADME; conditions: dog; for Papp A→B at 60 min, 5 μM: apical to basolateral; for Papp B→A at 60 min, 5 μM: MDCK-MDR1, pH 7.4, basolateral to apical; for efflux ratio at 60 min, 5 μM: pH 7.4, MDCK-MDR1, @ 5 μM, read-out: Papp(B-A)/Papp(A-B) efflux ratio
Procedure: (§5) Permeability measurements were conducted according to the Cyprotex protocol using the MDCK-MDR1 cell line obtained from the NIH (Rockville, Md., USA). […] The cells in this assay form a cohesive sheet of a single cell layer filing the surface area of the culture dish, also known as a confluent monolayer, and on day four the test compound was added to the apical side of the membrane and the transport of the compound across the monolayer was monitored over a time period of 60 min.
(§6) Test compounds were dissolved in DMSO at a concentration of 10 mM. The dosing solutions were prepared by diluting test compound with assay buffer (Hanks Balanced Salt Solution), pH 7.4, at a final concentration of 5 μM. For assessment of apical to basolateral (“A-B”) permeability, buffer was removed from the apical compartment and replaced with test compound dosing solution with or without the permeability glycoprotein (“PgP”, “P-gP”, “Pgp” or “P-gp”) inhibitor elacridar (2 μM). For assessment of basolateral to apical (“B-A”) permeability, buffer was removed from the companion plate and replaced with test compound dosing solution. Incubations were carried out in duplicate at 37° C. in an atmosphere of 5% CO2 with a relative humidity of 95%. […] After incubation for 60 minutes, apical and basolateral samples were diluted and test compounds quantified by LC/MS/MS using an 8-point calibration in the range 0.0039 to 3 μM with appropriate dilution of the samples (receiver dilution factor=1; donor and C0 dilution factor=10). The permeability coefficient (Papp) for each compound was calculated from the following equation: Papp=(dQ/dt)/(C0×S), where dQ/dt is the rate of permeation of the drug across the cells, C0 is the donor compartment concentration at time zero, and S is the area of the cell monolayer.
(§7) The percent recovery was measured for all incubation conditions.
(§8) Papp(A-B) gives an indication of permeation extent across the cells in this assay, which is envisaged to model the transcellular transport across Pgp-expressing cells, such as Pgp-expressing gastrointestinal tract cells.
(§9) The integrity of each monolayer was monitored by examining the permeation of lucifer yellow by fluorimetric analysis.

[2] = MDCK-MDR1 permeability assay; format: in vitro ADME; conditions: MDCK-MDR1, pH 7.4, @ 5 μM, apical to basolateral, with P-gp inhibitor elacridar (2 μM); read-out: MDCK-MDR1 P^eapp(A-B)
Procedure: as §5, §6, §7, §8, §9

physchem = conditions: thermodynamic from solid
JAK1-JH1JH2 = JAK1-JH1JH2 (Homo sapiens (Human), UniProt P23458); assay: Enzymatic inhibition assay (HTMS); format: biochemical; conditions: 12.5 μM ATP; read-out: JAK1_JH1JH2 IC50
JAK1-JH1JH2, sequence (P23458 574-1154): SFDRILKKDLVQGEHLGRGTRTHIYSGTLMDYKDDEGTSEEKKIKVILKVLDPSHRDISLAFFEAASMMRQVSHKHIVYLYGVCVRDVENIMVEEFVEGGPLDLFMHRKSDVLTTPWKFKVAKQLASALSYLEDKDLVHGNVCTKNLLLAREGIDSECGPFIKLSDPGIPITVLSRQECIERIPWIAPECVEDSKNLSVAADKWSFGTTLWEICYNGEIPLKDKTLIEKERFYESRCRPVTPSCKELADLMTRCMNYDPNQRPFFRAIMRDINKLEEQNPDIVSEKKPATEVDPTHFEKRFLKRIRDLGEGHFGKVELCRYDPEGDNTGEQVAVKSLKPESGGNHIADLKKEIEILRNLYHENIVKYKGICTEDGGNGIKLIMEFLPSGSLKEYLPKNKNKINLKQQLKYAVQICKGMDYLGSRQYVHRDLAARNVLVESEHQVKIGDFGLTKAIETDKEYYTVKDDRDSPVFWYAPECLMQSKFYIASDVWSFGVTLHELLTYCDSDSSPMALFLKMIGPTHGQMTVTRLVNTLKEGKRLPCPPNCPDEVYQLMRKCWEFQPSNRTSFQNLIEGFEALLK
Description: (§1) JAK1-JH1JH2 (574-1154 with a His-GST Tag and a C-terminal tev (ENLYFQ-G) cleavage site), JAK3-JH1JH2 (512-1124 with a GST Tag and a C-terminal tev (ENLYFQ-G) cleavage site), and Tyk2-JH1JH2 (8H_tev_580-1182-C936A-C1142A with a C-terminal tev (ENLYFQ-G) cleavage site) were purified internally. […] LC/MS grade water and acetonitrile (ACN), were purchased from HoneyWell, Burdick & Jackson (Muskegon, Mich., USA). Dimethylsulfoxide 99.8% (DMSO) and trifluoroacetic acid 99.5% (TFA) were purchased from EMD Chemical (Gibbstown, N.J., USA). Adenosine triphosphate (ATP), 4-morpholinepropanesulfonic acid (MOPS), magnesium chloride (MgCl2), ethylenediaminetetraacetic acid (EDTA), dithiothreitol (DTT), formic acid>95% (FA) and Tween-20 were purchased from Sigma (St Louis, Mo., USA). 384-well polypropylene plates, Cat#781280 were purchased from Greiner (Monroe, N.C.), RapidFire™ cartridge A C4 Column (Agilent Technologies, Santa Clara, Calif.).
(§2) The HTMS experiments were performed in positive ionization mode on a RapidFire 300 instrument (Agilent Technologies, Santa Clara, Calif.), coupled with an ABSiex QTrap 4000 system with an Electrospray Ionization source (RF-MS) (Concord, ON, Canada). […] The entire system was operated using the RapidFire software interfaced with Analyst software for the mass spectrometer.
(§3) 11-point dosing series were made for each compound by serially diluting 1:3 or 1:4 in DMSO, with point 12 being a DMSO control. From the serial dilution plates, sample was transferred to a 384 wells assay plate (#781280, Greiner, Monroe, N.C.) using Labcyte Echo (Sunnyvale, Calif.), or Biosero ATS (San Diego, Calif.). The compounds were tested in duplicate. Column 12 was used for positive controls, and column 24 contained negative controls with no enzyme added. A compound from our internal collection, with inhibitory activity for JAK isoforms, was used as a reference compound. The final concentration of DMSO was ≤0.25% in a 20 μL reaction. The enzyme reaction was initiated by the addition of 10 μL of enzyme and ATP mixture to 10 μL of substrate solution prepared in reaction buffer (50 mM MOPS pH 7.5, 10 mM MgCl2, 1 mM EDTA, 2 mM DTT, 0.002% Tween-20). The Tyk2 enzyme was pre-incubated with 2 mM ATP for 30 min prior to the reaction initiation. Immediately after the addition of the enzyme to the reaction mixture, the plate was centrifuged at 1000 rpm for 1 minute and incubated at 25° C. for 45 minutes for JAK3 and 90 minutes for JAK1, JAK2 and Tyk2. The reaction was quenched by the addition of 20 μL of 0.5% TFA containing 0.15 μM of internal standard peptide using Multidrop Combi reagent dispenser (Thermo Scientific, Waltham, Mass.). […] After the quench, the assay plate was centrifuged at 3000 rpm for 3 minutes and sealed with pierceable aluminum foil (Cat#06644-001, Agilent) using a PlateLoc (Agilent Technologies, Santa Clara, Calif.). The plates then were transferred on to the RapidFire for the MS analysis. Compound inhibition was assessed by a decrease of the phosphorylated product levels in sample wells compared to the non-inhibited enzyme reaction.
(§4) The sample analysis on the RapidFire was performed using a mobile phase A1 consisting of Water/TFA/FA (100:0.01:0.1, v/v/v), a mobile phase B1 consisting of ACN/Water/TFA/FA (80:20:0.01:0.1, v/v/v). […] The samples were aspirated directly from the 384-well assay plate and delivered onto RF-MS microscale solid-phase C4 extraction cartridge (Type A). The undesired component such as salt, cofactor, detergent and large protein were washed out and the retained analytes (substrate, product and IS) were coeluted directly onto the AB Siex Qtrap 4000 system.

JAK3-JH1JH2 = JAK3-JH1JH2 (Homo sapiens (Human), UniProt P52333); assay: Enzymatic inhibition assay (HTMS); format: biochemical; conditions: 150 μM ATP; read-out: JAK3_I_JH1JH2 IC50
JAK3-JH1JH2, sequence (P52333 512-1124): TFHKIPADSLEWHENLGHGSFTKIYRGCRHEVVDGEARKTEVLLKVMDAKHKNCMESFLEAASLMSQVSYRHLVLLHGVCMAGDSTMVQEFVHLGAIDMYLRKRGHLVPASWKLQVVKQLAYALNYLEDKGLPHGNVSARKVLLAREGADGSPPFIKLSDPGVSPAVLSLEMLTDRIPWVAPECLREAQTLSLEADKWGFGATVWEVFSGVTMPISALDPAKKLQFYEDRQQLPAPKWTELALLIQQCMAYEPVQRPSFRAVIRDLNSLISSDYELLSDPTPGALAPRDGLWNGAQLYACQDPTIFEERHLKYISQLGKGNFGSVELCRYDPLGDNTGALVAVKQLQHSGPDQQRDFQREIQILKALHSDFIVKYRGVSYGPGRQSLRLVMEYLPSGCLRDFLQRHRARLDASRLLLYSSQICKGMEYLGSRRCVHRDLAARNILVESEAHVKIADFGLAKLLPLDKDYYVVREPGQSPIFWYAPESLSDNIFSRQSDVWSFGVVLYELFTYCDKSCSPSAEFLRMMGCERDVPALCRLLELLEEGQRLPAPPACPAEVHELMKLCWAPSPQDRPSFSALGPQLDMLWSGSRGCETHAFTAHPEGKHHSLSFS
Description: as §1, §2, §3, §4

Tyk2-JH1JH2 = Tyk2-JH1JH2 (Homo sapiens (Human), UniProt P29597, C1142A/C936A); assay: Enzymatic inhibition assay (HTMS); format: biochemical; conditions: 50 μM ATP; read-out: Tyk2_I_JH1JH2 IC50
Tyk2-JH1JH2, sequence (P29597 580-1182 C936A/C1142A): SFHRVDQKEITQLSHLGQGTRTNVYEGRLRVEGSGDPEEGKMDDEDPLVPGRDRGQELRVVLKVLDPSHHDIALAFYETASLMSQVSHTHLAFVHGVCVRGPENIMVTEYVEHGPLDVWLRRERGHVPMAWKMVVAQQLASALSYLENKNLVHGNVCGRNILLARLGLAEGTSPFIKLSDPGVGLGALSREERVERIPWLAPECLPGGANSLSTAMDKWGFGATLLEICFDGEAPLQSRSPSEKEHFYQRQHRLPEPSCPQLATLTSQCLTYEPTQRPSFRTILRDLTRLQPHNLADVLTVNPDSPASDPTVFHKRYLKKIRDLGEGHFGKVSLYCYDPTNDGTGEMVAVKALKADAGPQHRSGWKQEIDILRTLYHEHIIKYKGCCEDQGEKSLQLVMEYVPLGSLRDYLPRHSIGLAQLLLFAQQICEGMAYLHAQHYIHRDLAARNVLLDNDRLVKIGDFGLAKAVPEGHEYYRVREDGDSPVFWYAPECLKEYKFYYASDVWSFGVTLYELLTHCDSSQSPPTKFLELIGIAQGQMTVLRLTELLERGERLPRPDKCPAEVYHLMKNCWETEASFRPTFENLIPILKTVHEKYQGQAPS
Description: as §1, §2, §3, §4

IFNα pSTAT4 (JAK1/TYK2) = IFNα pSTAT4 (JAK1/TYK2) cellular assay, AlphaLISA in PBMCs; format: cell-based; conditions: PBMC, IFNα 4 ng/mL
Procedure: The AlphaLISA assay (based on Alpha Technology from PerkinElmer) was performed by first plating freshly thawed PBMCs (Biological Specialty Corporation) in 384-well plates at 100,000 cells per 6 μL per well in DMEM (Dulbecco's Modified Eagle Medium) containing 10% FBS (fetal bovine serum) and 1,000 I.U./mL penicillin and 1,000 μg/mL streptomycin. The cells were then treated with 2 μL/well of compounds diluted in DMSO at half-log titrated concentrations, with a highest test concentration of 10 μM and 0.5% final DMSO concentration, for thirty minutes at 37° C. Next, the cells were stimulated with 2 μL/well of IFNα (PBL Assay Science Cat. No. 11101-2) at 4 ng/mL for thirty minutes at 37° C. The cellular reactions were terminated by the addition of 2 μL/well of lysis buffer (PerkinElmer Cat. No. ALSU-PST4-A10K) followed by an incubation of five minutes at room temperature. 4 μL/well of acceptor mix (PerkinElmer Cat. No. ALSU-PST4-A10K) was added to the cells and incubated in the dark for one hour at room temperature. Then, 4 μL/well of donor mix (PerkinElmer Cat. No. ALSU-PST4-A10K) was added to the cells and incubated in the dark overnight at room temperature. Finally, the plates were read on a PerkinElmer EnVision for detection of the time-resolved fluorescence signal. The percentage of IFNα-dependent pSTAT4 inhibition was determined at the compound test concentrations; and for each compound, a dose curve was generated and the IC50 was calculated. Compound IC50 was calculated by nonlinear regression, sigmoidal dose response analysis of the half-log dilution titration curve of the compound concentration vs. Alpha signal. The term “Alpha” is defined in the immediately preceding cellular assay description.

IL-2 pSTAT5 (JAK1/JAK3) = IL-2 pSTAT5 (JAK1/JAK3) cellular assay, AlphaLISA in PBMCs; format: cell-based; conditions: PBMC, IL-2 5 ng/mL
Procedure: The AlphaLISA assay (based on Alpha Technology from PerkinElmer) was performed by first plating freshly thawed PBMCs (Biological Specialty Corporation) in 384-well plates at 30,000 cells per 4 μL per well in HBSS (Hanks' Balanced Salt Solution) containing 0.1% IgG (immunoglobulin G)-free, protease-free BSA (bovine serum albumin) (Jackson ImmunoResearch Cat. No. 001-000-161). The cells were then treated with 2 μL/well of compounds diluted in DMSO at half-log titrated concentrations, with a highest test concentration of 10 μM and 0.5% final DMSO concentration, for thirty minutes at 37° C. […] The cellular reactions were terminated by the addition of 2 μL/well of lysis buffer (PerkinElmer Cat. No. ALSU-PST5-A10K) followed by an incubation of five minutes at room temperature. 5 μL/well of acceptor mix (PerkinElmer Cat. No. ALSU-PST5-A10K) was added to the cells and incubated in the dark for one hour at room temperature. Then, 5 μL/well of donor mix (PerkinElmer Cat. No. ALSU-PST5-A10K) was added to the cells and incubated in the dark overnight at room temperature. Finally, the plates were read on a PerkinElmer EnVision for detection of the time-resolved fluorescence signal. The percentage of IL-2-dependent pSTAT5 inhibition was determined at the compound test concentrations; and for each compound, a dose curve was generated and the IC50 was calculated. Compound IC50 was calculated by nonlinear regression, sigmoidal dose response analysis of the half-log dilution titration curve of the compound concentration vs. Alpha signal. The acronym “Alpha” stands for amplified luminescent proximity homogeneous assay; the Alpha signal is a luminescent/fluorescent signal.

[3] = pH 6.5
[4] = MDCK-MDR1, pH 7.4, @ 5 μM, without elacridar, read-out: MDCK-MDR1 Papp(A-B)
[5] = MDCK-MDR1, pH 7.4, with elacridar 2 μM, @ 5 μM, with P-gp inhibitor elacridar (2 μM), read-out: MDCK-MDR1 P^eapp(A-B)

Row | Plasma Concentration After p.o. Dosing, Mean ([1]; Time = 0.5 h) [ng/mL] | Plasma Concentration After p.o. Dosing, Mean ([1]; Time = 2 h) [ng/mL] | Colon Concentration After p.o. Dosing, Mean ([1]; Time = 4 h) [ng/g] | Plasma Concentration After p.o. Dosing, Mean ([1]; Time = 4 h) [ng/mL] | Papp A→B at 60 min, 5 μM (P-gp (MDR1); [4]) [×10⁻⁶ cm/s] | Papp B→A at 60 min, 5 μM (P-gp (MDR1); @ 5 μM) [×10⁻⁶ cm/s] | efflux ratio at 60 min, 5 μM (P-gp (MDR1)) | Papp A→B [2] [×10⁻⁶ cm/s] | solubility (physchem; pH 6.5, fassif) [µM] | solubility (physchem; simulated gastric fluid) [µM] | SMILES | IC50 (JAK1-JH1JH2) [nM] | IC50 (JAK3-JH1JH2) [nM] | IC50 (Tyk2-JH1JH2) [nM] | IC50 (IFNα pSTAT4 (JAK1/TYK2)) [nM] | Papp A→B at 60 min, 5 μM (P-gp (MDR1); [5]) [×10⁻⁶ cm/s] | IC50 (IL-2 pSTAT5 (JAK1/JAK3)) [nM] | SIF solubility [3] [µM]
1 | 347.0 | 69.1 | 895.0 | 84.5 | 1.3 | 55.3 | 43 | 22 | > 400 | > 400 | Cc1nc2cnc3[nH]ccc3c2n1[C@H]1CC[C@H](CC#N)CC1 [A] | – | – | – | – | – | – | –
2 | 352.7 | 66.3 | 6076.7 | 11.3 | 0.4 | 23.5 | 59 | 1.7 | 75 (≈ 23.2 µg/mL) | > 400 | N#CC[C@H]1CC[C@H](n2c(CO)nc3cnc4[nH]ccc4c32)CC1 [B] | – | – | – | – | – | – | –
3 | – | – | – | – | – | – | – | – | – | – | Cn1cc(NC(=O)Cc2nc3cnc4[nH]ccc4c3n2[C@H]2CC[C@H](CC#N)CC2)cn1 [Ex. 9, 2-(1-((1r,4r)-4-(Cyanomethyl)cyclohexyl)-1,6-dihydroimidazo[4,5-d]pyrrolo[2,3-b]pyridin-2-yl)-N-(1-methyl-1H-pyrazol-4-yl)acetamide] | 0.2 | 79.9 | 4.7 | 35.9 | 0.6 | 11.2 | >400
4 | – | – | – | – | – | – | – | – | – | – | N#CC[C@H]1CC[C@H](n2c(CC(=O)Nc3cc[nH]n3)nc3cnc4[nH]ccc4c32)CC1 [Ex. 11, 2-(1-((1r,4r)-4-(Cyanomethyl)cyclohexyl)-1,6-dihydroimidazo[4,5-d]pyrrolo[2,3-b]pyridin-2-yl)-N-(1H-pyrazol-3-yl)acetamide] | 0.4 | 30.3 | 1.5 | 96.5 | 0.8 | 49.1 | >400
